Assay results as given in US20160015725A1, “METHODS OF CONTROLLING TUMOR BIOENERGETICS NETWORKS” (THE WISTAR INSTITUTE OF ANATOMY AND BIOLOGY, priority 2012, published 2016).

Legend:
Type in all cases: cell-based, human
[1] = system: mTORC1; assay: mTORC1 signaling in tumor cells, Western blotting
[2] = system: tumor cells; assay: ER UPR markers (Western blotting, Xbp1 splicing, RT-qPCR); details: for ER UPR markers (CHOP, C/EBPβ, Grp78): tumor cells, Western blotting; for effect on Gamitrinib-induced AMPK phosphorylation and ER stress/UPR markers: agent added to Gamitrinib
[3] = system: AMP-activated kinase (AMPK); assay: AMPK phosphorylation in tumor cells, Western blotting; details: tumor cells
[4] = system: PC3 cells; assay: ER stress luciferase-promoter reporter assay; details: PC3, 20 h
Procedure: In another series of experiments, PC3 cells were transfected with control or Grp78-directed siRNA, and analyzed for cell viability after 24 h by an MTT assay. For promoter analysis, PC3 cells were plated in triplicate onto 48-well plates at 1.4×10^4 cells/well, and cotransfected with Firefly Luciferase-reporters for IRE1, ATF6, PERK or CHOP and a constitutive reporter (pTK-Renilla Luc) in a 10:1 ratio using X-tremeGENE reagent (Roche). After 24 h, cells were treated with vehicle, Gamitrinib, tunicamycin or 2-DG and analyzed after 20 h for Firefly and Renilla luciferase activity using a Dual Luciferase Reporter Assay System (Promega). Transfection of plasmid DNAs was carried out with lipofectamine 2000 (Invitrogen) according to published protocols. A PPIase-defective CypD H168Q mutant cDNA was generated by Quick-Change site-directed mutagenesis (Stratagene) using primers 5′-[…]-3′ (forward) and 5′-[…]-3′ (reverse) (mutated sequences are bolded). The inserted mutation (bolded) was confirmed by DNA sequencing, and cloned in a pcDNA3.0 expression vector (Invitrogen) for reconstitution experiments in CypD−/− MEFs.

[5] = system: LN229 cells; assay: Cell viability by MTT
Procedure: Various cell types were seeded in triplicate onto 96-well plates at 4×10^3 cells/well, treated with vehicle, Gamitrinib or 17-AAG (0-20 μM) for 12 h, and analyzed for changes in metabolic activity by an MTT assay. For determination of apoptosis, LN229 cells ([…]) were labeled for annexin V and propidium iodide (PI) (BD Biosciences), and analyzed by multiparametric flow cytometry (BD).

[6] = system: V600E mutant BRAF melanoma cells; assay: AMPK and autophagy signaling in mutant BRAF melanoma cells
Source text: (§1) Human glioblastoma LN229, prostate adenocarcinoma PC3 or LNCaP cells, or normal NIH3T3 fibroblasts were obtained from the American Tissue Culture Collection (ATCC, Manassas, Va.), and maintained in culture according to the supplier's specifications. The following wild type (WT) BRAF N-Ras mutant melanoma cells WM852 and WM1366, and melanoma cells carrying a V600E activating mutation in the BRAF oncogene, 451Lu, Me11617 and WM983B were used in this study. WT or CypD knockout Mouse Embryonic Fibroblasts (MEFs, CypD−/−) were characterized earlier 40. In some experiments, CypD−/− MEFs were stably transfected with control plasmid, WT CypD or peptidyl prolyl isomerase (PPIase)-deficient H168Q CypD mutant cDNA, and analyzed for differential recruitment of HK-II to mitochondrial or cytosolic fractions.
(§2) For Western blotting, protein lysates were prepared from the different cell types in RIPA Buffer (150 mM NaCl, 1.0% Triton X-100, 0.5% sodium deoxycholate, 0.1% SDS, 50 mM Tris, pH 8.0) containing EDTA-free Protease Inhibitor Cocktail (Roche) and Phosphatase Inhibitor Cocktail 2 and 3 (Sigma Aldrich). Equal amounts of protein lysates were separated by SDS gel electrophoresis, transferred to PVDF membranes and incubated with primary antibodies of various specificities. Protein bands were detected by chemiluminescence.
(§3) Samples were imaged using a Leica TCS SP2 confocal microscope. For determination of autophagy, cells under the various conditions tested were harvested after 12 h, and analyzed with an antibody to […] (LC3) by Western blotting.

[7] = system: hexokinase; assay: Hexokinase activity in mitochondrial fractions of treated cells; details: LN229 mitochondrial fractions, 5 h
Procedure: HK activity in LN229 cells was measured as the total glucosephosphorylating activity using a standard G6PDH-coupled assay kit (BioVision). Mitochondria isolated from Gamitrinib- or 17-AAG-treated LN229 cells, or cultures transfected with various siRNAs were homogenized in cold PBS, followed by centrifugation at 1000 g for 10 min at 4° C. HK activity was determined by analysis of G6P-dependent conversion of NADP to NADPH in the presence of excess […] in the presence of 2 mM glucose, and quantification of absorbance at 450 nm. All assays were performed at 25° C. under conditions of linear HK-limited NADPH formation.

[8] = system: multiple tumor cell types; assay: ATP production in tumor cells (luciferin-luciferase)
Procedure: Intracellular ATP concentrations were measured by the luciferin—luciferase method using an ATP measuring kit (Biochain). The ATP concentration in each extract was measured with a microplate luminometer (Beckman Coulter) against standard ATP solutions used as reference. In some experiments, PC3 or LN229 cells were preincubated with sodium pyruvate for 7 h in the presence of vehicle or Gamitrinib before determination of ATP production.

[9] = system: WT BRAF melanoma cells; assay: AMPK and autophagy signaling in WT BRAF melanoma cells; details: WT BRAF melanoma cells
Source text: as §1, §2, §3

[10] = system: tumor cells; assay: Autophagy (LC3 conversion, LC3-CFP puncta)
Procedure: LN229 cells were transfected with various siRNAs, and mixed after 24 h with plasmid encoding cyan fluorescent protein (CFP) fused to human […] (LC3) cDNA in the presence of Lipofectamine 2000 Transfection Reagent (Invitrogen). After 48 h, transfected cells were fixed in 4% paraformaldehyde for 15 min at 37° C., washed, and examined by fluorescence microscopy (Nikon, E600). The numbers of CFP-LC3 punctate dots per cell was determined from three independent experiments. A minimum of 50 CFP-LC3-positive cells assessed from at least ten random fields per sample were counted in triplicate per each condition.
as §3

## O=CC[C@@H](O)[C@H](O)[C@H](O)CO [2-DG, 2-deoxy-D-glucose]
[1]
  phosphorylation of mTOR, 4EBP1 and p70S6 (mTORC1): suppression of mTORC1 4EPB1 and p70S6 phosphorylation
[2]
  ER UPR markers (CHOP, C/EBPβ, Grp78): concentration (FIG. 14b)- and time (FIG. 14c)-dependent upregulation of ER UPR
[3]
  AMPK phosphorylation: AMPK activation
[4]
  minimal CHOP promoter activity: transcriptionally induced
  transcriptional activation of response elements of IRE-1, ATF-6 and PERK: comparably induced transcriptional activation

## Cn1cnc(N)c2ncnc1-2 [3-MA, 3-methyladenine]
[5]; agent added to Gamitrinib
  tumor cell killing mediated by sub-optimal concentrations of Gamitrinib: enhanced tumor cell killing mediated by sub-optimal concentrations of Gamitrinib

## C=CCNC1=C2C[C@@H](C)C[C@H](OC)[C@H](O)[C@@H](C)/C=C(\C)[C@H](OC(N)=O)[C@@H](OC)/C=C\C=C(/C)C(=O)NC(=CC1=O)C2=O [17-AAG, 17-allylamino demethoxygeldanamycin, reference compound]
[6]; BRAF mutant melanoma cells
  AMPK activation: had no effect on AMPK activation
[1]
  phosphorylation of mTOR, 4EBP1 and p70S6 (mTORC1): had no effect
[7]
  hexokinase activity: had no effect
[5]; 17-AAG plus 3-MA vs each treatment alone
  tumor cell viability, combination with 3-MA: did not decrease tumor cell viability compared to each treatment alone
[8]; tumor cell types, non-cytotoxic concentrations, 5 h
  ATP production: had no effect on ATP production
[3]
  AMPK phosphorylation: not
[9]
  AMPK phosphorylation: had no effect on AMPK activation

## N#CC(C#N)=NNc1cccc(Cl)c1 [CCCP, carbonyl cyanide 3-chlorophenylhydrazone, reference compound]
[1]
  phosphorylation of mTOR, 4EBP1 and p70S6 (mTORC1): inhibition of 4EBP1 phosphorylation
[2]
  ER UPR markers (CHOP, C/EBPβ, Grp78): upregulation of CHOP, C/EBPβ, and Grp78
[3]
  AMPK phosphorylation: time-dependent phosphorylation of AMPK
[10]
  autophagy (LC3-II conversion): stimulation of LC3-II conversion

## CC(=O)N[C@@H](CS)C(=O)O [NAC, N-acetyl-L-cysteine, reference compound]
[2]
  effect on Gamitrinib-induced AMPK phosphorylation and ER stress/UPR markers: did not affect

## N#CC(=C(/N)Sc1ccccc1N)/C(C#N)=C(\N)Sc1ccccc1N [U0126, reference compound]
[6]; mutant BRAF melanoma cells, agent added to Gamitrinib
  AMPK phosphorylation after Gamitrinib treatment: partially restored AMPK phosphorylation

## CC(=O)C(=O)[O-].[Na+] [sodium pyruvate, reference compound]
[2]
  effect on Gamitrinib-induced AMPK phosphorylation and ER stress/UPR markers: did not affect
[8]; exogenous addition, PC3 or LN229, 7 h
  rescue of ATP production in Gamitrinib-treated tumor cells: failed to rescue ATP production

## tunicamycin
[2]; control ER stressor
  IRE-1 and CHOP expression: comparable induction of IRE-1 and CHOP expression
[4]
  minimal CHOP promoter activity: transcriptionally induced
  transcriptional activation of response elements of IRE-1, ATF-6 and PERK: comparably induced transcriptional activation
